# Where “and” joins values, the source holds several entries; their conditions need not be identical. Equal values may be shown once. Entries after “also recorded” stand apart in the source; their conditions may differ. Read-outs that look alike come from different tables or passages of the source.
# Tests used:
# protein kinase A = molecular target: T1, protein kinase A (Homo sapiens, UniProt P17612); assay: Kinase disk assay (32P transfer to peptide), PKA; type: biochemical; settings: remaining kinase activity
# T1 construct: purchased Upstate Cell Signaling Specialties
# Method: (§1) Fyn and p38 kinases were expressed in bacteria and purified as previously described. Protein kinase A and Protein kinase B were obtained commercially (Upstate Cell Signaling Specialties Charlottesville, Virginia, United States). […] Reaction mixtures (27 μl) were spotted onto a phosphocellulose disk and washed with 0.5% H3PO4. The transfer of ^32P was measured by standard scintillation counting. […] When the IC50 value fell between two measured concentrations, it was calculated based on the assumption of an inversely proportional relationship between inhibitor concentration and counts per minute between the two data points.
# (§2) IC50 values against Fyn and p38 are given (left), and percentage activity of PKA and PKB in presence of the inhibitors are given (right). Kinase activity was determined using a standardized disk assay based on the P^32 transfer to a synthetic peptide (See Materials and Methods). […] Peptide subrate sequences for each kinase are shown below:
# bzRRASLG (100 µM) was used as the susbtrate for PKA.
# protein kinase B = molecular target: T2, protein kinase B (Homo sapiens, UniProt P31749); assay: Kinase disk assay (32P transfer to peptide), PKB; type: biochemical; settings: 25 min, read-out: Relative activity @ 1 µM inhibitor PKB
# T2 construct: purchased Upstate Cell Signaling Specialties
# Method: as §1, §2
# bzRPRTSSF (100 µM) was used as the susbtrate for PKB.
# p38-α = molecular target: T3, p38-α (Homo sapiens, UniProt Q16539); assay: Kinase disk assay (32P transfer to peptide), p38; type: biochemical; settings: Table S3; […] 100 µM substrate, 11 nM [γ-32P]ATP
# T3 construct: made in house; host or cells: bacteria
# Method: as §1, §2
# […] (100 µM) was used as the substrate for p38.
# human CBR1 = molecular target: T4, human CBR1 (Homo sapiens, UniProt P16152); assay: CBR1 assay (NADPH-dependent reduction of menadione, spectrophotometric)
# T4 sequence (P16152 1-277): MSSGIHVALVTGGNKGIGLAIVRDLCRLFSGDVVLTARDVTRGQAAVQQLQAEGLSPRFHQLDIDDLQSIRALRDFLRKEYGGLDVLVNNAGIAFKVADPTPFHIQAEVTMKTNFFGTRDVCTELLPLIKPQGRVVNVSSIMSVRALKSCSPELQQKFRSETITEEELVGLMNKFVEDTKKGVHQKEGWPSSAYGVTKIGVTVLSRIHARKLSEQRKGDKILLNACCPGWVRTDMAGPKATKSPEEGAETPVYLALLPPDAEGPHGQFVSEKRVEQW
# Method: CBR1 activity was determined spectrophotometrically at 25 °C. The standard assay mixture consisted of 50 mM sodium phosphate (pH 6.8), 200 μM NADPH, and 200 μM menadione in a total volume of 1 ml. Compounds were dissolved in DMSO as 100× stock solutions. Reactions were initiated by the addition of enzyme, and initial rates were determined by monitoring the disappearance of NADPH at 340 nM. Controls without substrates or enzyme were routinely included.
# A549 cells [1] = assay: Cell viability assay (alamarBlue reduction), daunorubicin combination; type: cell-based, human; settings: for Cytotoxicity on A549 cells when used alone: 8 μM; for Enhancement of daunorubicin-mediated A549-cell killing: 8 μM compound with 440 nM daunorubicin
# From the text: To test this hypothesis, we measured the ability of hydroxy-PP-Me and PP-L to block CBR1-mediated metabolism of daunorubicin in A549 cells using cell killing as a measure of the cellular status of daunorubicin metabolism. […] Hydroxy-PP-Me induced a 25% enhancement of daunorubicin-mediated A549-cell killing consistent with its ability to inhibit CBR1-mediated daunorubicin metabolism. […] Although the observed 25% enhancement of daunorubicin-mediated cell killing is modest, the hydroxy-PP-Me dose dependence (Figure 5B) of this effect is further evidence that it is CBR1 mediated rather than a general toxic response.
# A549 cells were purchased from ATCC and cultured in the F-12K medium with 10% of FBS. Cells were maintained at 37 °C in an atmosphere of 5% CO2. Adherant cells were released for passaging using an isotonic Trypsin solution (0.25% Trypsin, 0.02% Versene). Rabbit anti-human CBR1 antibody was obtained from Dr. Tsuchida. The CBR expression vector, pET-11aCR, was obtained from Dr. Wermuth.
# (§3) Cell viability was determined by the alamarBlue reagent reduction assay in a 96-well culture plate, measuring the absorbance at 570 and 600 nm spectrophotometrically. The amount of PI-stained cells was estimated by measuring fluorescence following incubation with PI (5 μg/ml). For both experiments, data are shown as the percentages of nontreated control cells.
# A549 cells [2] = assay: PI-stained cell assay, serum-withdrawal-induced apoptosis; type: cell-based, human; settings: for Enhancement of induction of apoptosis by cell stresses: A549, interferon-γ + Fas ligand, H2O2, interleukin-1β, serum withdrawal, interleukin-1β + serum withdrawal, data not shown; for Protection against serum-withdrawal-induced apoptosis (PI staining): 65 h following serum withdrawal
# From the text: We chose to focus on signals that induce apoptosis in A549 adenocarcinoma cells because this endpoint is important for many cell-fate decisions, including those relevant to cancer and inflammation. CBR1 has been directly implicated in redox reactions leading to H2O2 generation, a known stimulus for apoptosis. A549 cells were subjected to a wide range of cell stresses previously shown to induce apoptosis: (1) interferon-γ + Fas ligand, (2) H2O2, (3) interleukin-1β, (4) serum withdrawal, or (5) interleukin-1β + serum withdrawal.
# as §3
# Fyn = molecular target: T5, Fyn (Homo sapiens, UniProt P06241); assay: Kinase disk assay (32P transfer to peptide), Fyn; type: biochemical
# T5 construct: made in house; host or cells: bacteria
# Method: as §1, §2
# […] (100 µM) was used as the substrate for Fyn.
# [3] = tested on: A549, DU145, HUVEC, SF268 and SKOV3 cells; assay: Cytometrix cell morphology-based screen; set-up: species or system human; settings: for Potency in Cytometrix relative to parent compound (fold lower): linker analog vs parent, data not shown; for Cytometrix phenotype (PCA trajectory): 6 nM to 40 μM; for EC50: Homo sapiens, read-out: Approximate EC50 (distance in PCA space from DMSO controls)
# Method: SKOV3 (ovarian epithelial cancer), A549 (lung epithelial cancer), and SF268 (central nervous system epithelial cancer) were chosen for their broad genetic diversity and obtained from the National Institutes of Health. These human cells were grown and maintained in RMPI medium (Mediatech, Herndon, Virginia, United States) with 5% fetal calf serum (FBS, HyClone, Logan, Utah, United States). DU145 (prostate epithelial cancer) cells ( ATTC, Manassas, Virginia, United States) were maintained in MEM with 5% FBS. HUVEC cells (VEC Technologies, Rensselaer, New York, United States) were maintained in MCDB131 medium (VEC Technologies) with 10% FBS. For the assays 1,000–1,800 trypsinized (Mediatech) cells per well (depending on cell type) were plated in 384-well plates (Corning Costar, Acton, Massachusetts, United States) using a Multidrop (Thermo Labsystems, Beverly, Massachusetts, United States) and incubated for 24 h, the approximate doubling time. Six cell plates were made for each cell line.
# Compound stocks were maintained in DMSO. Compound information was stored in ActivityBase (ID Business Solutions, Guildford, United Kingdom). Compounds were serially diluted in 384-well drug plates to achieve eight concentrations diluting 3× in DMSO between wells using a Multimek (Beckman Coulter, Fullerton, California, United States). Wells were reserved on every drug plate for negative and positive controls. Negative-control wells contained DMSO only and the positive-control wells received a titration of paclitaxel, a tubulin stabilizer (Sigma-Aldrich-Fluka, St. Louis, Missouri, United States). […] Small molecules were tested at 40 μM on cells based on the logic that cellular effects on cells at […] concentration are most likely nonspecific and that we would most likely get a full-dose response after eight 3-fold dilutions (6 nM to 40 μM final concentrations).
# Compounds were added to cell plates from drug plates. Compound mixed with medium was added to the cells to achieve a 0.4% DMSO concentration on prepared cell plates using a PlateTrak (CCS Packard, Torrance, California, United States). Treated cells were incubated for another 24 h, the compound exposure time.
# Cells were stained for visualization of the nuclei, Golgi apparatus, and microtubules. Cells were fixed with 4% formaldehyde (Polysciences, Warrington, Pennsylvania, United States) for 1 h; washed in TBS (Teknova, Half Moon Bay, California, United States); blocked in 0.01% Triton X-100 (ICN Biomedicals, Irvine, California, United States) and 1% BSA in TBS (Teknova) and then left to incubate for 1 h; stained with 0.01% Triton X-100, 0.1% BSA, 5 μg/ml Hoechst 33342 (Molecular Probes, Eugene, Oregon, United States), 5 μg/ml FITC-Lectin Lens Culinaris (Sigma-Aldrich-Fluka), and 3 μg/ml Rhodamine Red–labeled monoclonal antibody DM1α (courtesy of Tim Stearns) for 1 h; and then washed in TBS. All of these steps were performed with a PlateTrak using an ELx405 microplate washer (Bio-Tek Instruments, Winooski, Vermont, United States). This was done in triplicate for each cell line.
# Cells were imaged on an inverted Axiovert 100M epifluorescent microscope (Carl Zeiss, Oberkochen, Germany) with a 5× objective and a Xenon lamp (Sutter Instruments, Novato, California, United States). A 5× magnification was chosen (rather than 40×) primarily as a function of the need to acquire a large number of individual cells in order to gather statistically relevant data on relatively rare subpopulations. The number of cells in a randomly acquired 40× image is not sufficient to make meaningful statistical measurements across many cells. Metamorph (Universal Imaging, Downingtown, Pennsylvania, United States) was used to control the motorized x, y, z stage (Prior Scientific, Rockland, Massachusetts, United States) that moved the plate to each well, autofocused, and took three successive fluorescent images with an Orca 100 camera (Hamamatsu, Hamamatsu City, Japan). […]
# [4] = 1 µM inhibitor, remaining kinase activity
# [5] = IC50 against CBR1, 200 μM NADPH, 200 μM menadione, pH 6.8, 25 °C
# [6] = read-out: IC50 against Fyn (Figure 3)
# T5 sequence (P06241 whole entry, species assumed): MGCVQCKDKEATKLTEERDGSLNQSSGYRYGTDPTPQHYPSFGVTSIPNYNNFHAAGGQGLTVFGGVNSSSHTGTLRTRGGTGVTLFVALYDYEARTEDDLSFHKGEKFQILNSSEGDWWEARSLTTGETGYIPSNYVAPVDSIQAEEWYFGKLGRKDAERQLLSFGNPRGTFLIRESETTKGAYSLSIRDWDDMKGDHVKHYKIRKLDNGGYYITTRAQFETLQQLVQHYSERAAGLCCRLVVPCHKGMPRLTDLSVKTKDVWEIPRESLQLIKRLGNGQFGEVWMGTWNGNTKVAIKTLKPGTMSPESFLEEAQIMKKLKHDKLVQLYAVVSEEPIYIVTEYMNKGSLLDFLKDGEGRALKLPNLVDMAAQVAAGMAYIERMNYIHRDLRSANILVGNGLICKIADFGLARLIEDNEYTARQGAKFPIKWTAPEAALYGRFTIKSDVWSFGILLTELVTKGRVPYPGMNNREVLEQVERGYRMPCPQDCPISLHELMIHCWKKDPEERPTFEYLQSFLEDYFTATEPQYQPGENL
# T2 sequence (P31749 whole entry, species assumed): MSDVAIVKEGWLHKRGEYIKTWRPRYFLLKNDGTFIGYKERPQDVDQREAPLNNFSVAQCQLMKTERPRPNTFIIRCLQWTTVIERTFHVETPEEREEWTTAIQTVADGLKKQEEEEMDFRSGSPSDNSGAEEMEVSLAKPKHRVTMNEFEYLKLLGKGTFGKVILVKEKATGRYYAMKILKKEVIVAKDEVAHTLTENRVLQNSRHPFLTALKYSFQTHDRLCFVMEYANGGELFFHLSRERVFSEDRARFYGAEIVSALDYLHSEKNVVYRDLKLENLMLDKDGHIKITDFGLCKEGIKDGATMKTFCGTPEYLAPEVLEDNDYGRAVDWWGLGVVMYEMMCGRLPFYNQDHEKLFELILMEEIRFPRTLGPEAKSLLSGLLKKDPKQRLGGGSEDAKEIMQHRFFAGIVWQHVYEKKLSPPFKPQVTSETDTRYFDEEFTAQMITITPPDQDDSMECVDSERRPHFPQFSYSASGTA
# T3 sequence (Q16539 whole entry): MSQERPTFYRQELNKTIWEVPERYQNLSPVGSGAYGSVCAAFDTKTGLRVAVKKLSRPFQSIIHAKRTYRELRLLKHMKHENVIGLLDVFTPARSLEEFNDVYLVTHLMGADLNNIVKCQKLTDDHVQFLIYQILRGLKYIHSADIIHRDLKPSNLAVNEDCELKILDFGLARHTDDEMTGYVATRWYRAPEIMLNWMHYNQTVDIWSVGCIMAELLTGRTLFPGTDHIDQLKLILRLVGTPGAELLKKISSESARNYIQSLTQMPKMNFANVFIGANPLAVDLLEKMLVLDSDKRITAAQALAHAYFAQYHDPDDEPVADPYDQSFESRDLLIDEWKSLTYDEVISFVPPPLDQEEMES
smiles,measurement,setting,value
"CNc1ncnc2c1c(-c1cccc(O)c1)cn2C(C)C [hydroxy-PP-Me, 3-(7-isopropyl-4-(methylamino)-7H-pyrrolo[2,3-d]pyrimidin-5yl)phenol]",Relative activity @ 1 µM inhibitor PKA,protein kinase A,106%
same,activity at 1 µM,protein kinase B; [4],95%
same,IC50,p38-α,> 50000 nM
same,IC50,human CBR1; [5],0.759 µM
same,Cytotoxicity on A549 cells when used alone,A549 cells [1],minimal cytotoxicity
same,Enhancement of daunorubicin-mediated A549-cell killing,A549 cells [1],25%
same,Cell viability with concomitant daunorubicin treatment,A549 cells [1]; 1–8 μM compound plus daunorubicin,dose-dependent decrease in cell viability
same,Enhancement of induction of apoptosis by cell stresses,A549 cells [2],no enhancement
same,Apoptosis induced by serum withdrawal blocked,A549 cells [2]; A549 cells,more than 90%
same,Protection against serum-withdrawal-induced apoptosis (PI staining),A549 cells [2]; A549 cells,dose-dependent decrease in PI staining; also recorded: almost completely protected against apoptosis
same,IC50,"Fyn; Table S3, LEEIYGEFKKK 100 µM substrate, 11 nM [γ-32P]ATP, read-out: IC50 (nM) Fyn",> 50000 nM
same,IC50,Fyn; [6],70000 nM and > 70000 nM
CCOCCn1nc(-c2ccccc2)c2c(N)ncnc21 [PP-L],Potency in Cytometrix relative to parent compound (fold lower),[3],approximately 5 fold
same,Cytotoxicity on A549 cells when used alone,A549 cells [1],minimal cytotoxicity
same,Enhancement of daunorubicin-mediated A549-cell killing,A549 cells [1],no enhancement of cell killing
same,Protection against serum-withdrawal-induced apoptosis (PI staining),A549 cells [2]; A549 cells,does not
"CC(=O)O[C@H]1C(=O)[C@@]2(C)[C@H]([C@H](OC(=O)c3ccccc3)[C@]3(O)C[C@H](OC(=O)[C@H](O)[C@@H](NC(=O)c4ccccc4)c4ccccc4)C(C)=C1C3(C)C)[C@]1(OC(C)=O)CO[C@@H]1C[C@@H]2O [paclitaxel, reference compound]",Cytometrix phenotype (PCA trajectory),"[3]; 24 h, five cell types",pronounced and highly reproducible trajectory
"COc1cccc2c1C(=O)c1c(O)c3c(c(O)c1C2=O)C[C@@](O)(C(C)=O)C[C@@H]3O[C@H]1C[C@H](N)[C@H](O)[C@H](C)O1 [daunorubicin, reference compound]",IC50,"A549 cells [1]; Homo sapiens, A549, read-out: Approximate IC50 for cell killing as a single agent",~0.44 µM
"CC(C)(C)n1nc(-c2ccc(Cl)cc2)c2c(N)ncnc21 [PP2, 1-tert-butyl-3-(4-chlorophenyl)-1H-pyrazolo[3,4-d]pyrimidin-4-amine, reference compound]",EC50,[3]; 24 h,~129 µM
same,activity at 1 µM,protein kinase B,103%
"COC(=O)[C@@]1(O)C[C@H]2O[C@]1(C)n1c3ccccc3c3c4c(c5c6ccccc6n2c5c31)C(=O)NC4 [K252a, reference compound]",Cytometrix phenotype (PCA trajectory),"[3]; 24 h, five cell types","dose-dependent morphological changes in A549, DU145, HUVEC, and SF268 cells but not SKOV3 cells"
"CC(C)(C)n1nc(-c2cccc(O)c2)c2c(N)ncnc21 [hydroxy-PP, 3-(1-tert-butyl-4-amino-1H-pyrazolo[3,4-d]pyrimidin-3-yl)phenol]",Cytometrix phenotype (PCA trajectory),"[3]; 24 h, five cell types",distinct from the phenotypes induced by kinase inhibitors and the microtubule depolymerization inhibitors
same,EC50,"[3]; 24 h treatment, five cell types, concentration of Figure 1D, called approximately the EC50",~0.4 µM
same,Relative activity @ 1 µM inhibitor PKA,protein kinase A,110%
same,activity at 1 µM,protein kinase B; [4],91%
same,IC50,p38-α,17000 nM
same,IC50,human CBR1; [5],0.788 µM
same,IC50,"human CBR1; IC50 against CBR1, re-screen of the screening collection, data not shown",< 1 µM
same,Enhancement of induction of apoptosis by cell stresses,A549 cells [2],no enhancement
same,Protection against serum-withdrawal-induced apoptosis (PI staining),A549 cells [2]; A549 cells,able to block A549-cell apoptosis
same,IC50,Fyn; [6],5 nM
CCOCCn1nc(-c2cccc(O)c2)c2c(N)ncnc21 [hydroxy-PP-L],Potency in Cytometrix relative to parent compound (fold lower),[3],approximately 5 fold
same,Protection against serum-withdrawal-induced apoptosis (PI staining),A549 cells [2]; A549 cells,"protects A549 cells against serum-withdrawal-induced apoptosis, although to a lesser extent than hydroxy-PP-Me"
same,Protection against serum-withdrawal-induced apoptosis (PI staining),"A549 cells [2]; A549 cells, listed as Hydroxy-PP-L",dose-dependent decrease in PI staining

# From article PMC1073692, “An Unbiased Cell Morphology–Based Screen for New, Biologically Active Small Molecules” (PLoS Biology, 2005)
